Where “and” joins values, the source holds several entries; their conditions need not be identical. Equal entries are not always repeated. Where two headings read alike, the source gives them in different places.
Key:
PSV-1 3C protease = PSV-1 3C protease (Porcine sapelovirus 1, UniProt Q8JJT0); test: In vitro proteolytic activity assay (HPLC, 3 h incubation); assay type: biochemical; settings: fixed enzyme concentration, 3 h incubation
Procedure: (§1) For 12 and 14, the inhibitory activity decreased for EV-B93>PSV-1>ERBV-1>AiV-1>EV-D68>HRV-A49.
(§2) A volume of 100 μl of reaction mixture containing 1.9 μM 3C protease, 25 μM substrate peptide, 5% DMSO, buffer (30 mM Tris pH 8.0, and 50 mM NaCl or 50 mM HEPES pH 7.4 and 50 mM NaCl) and (optionally) different concentrations of inhibitor was incubated in 37 °C during 3 h. The reaction was quenched by addition of 0.5% (final concentration) TFA. Samples were analysed by HPLC on SOURCE 15RPC ST 4.6/100 column using: 2–90% linear gradient of ACN in 0.1% TFA. The 3C protease activity in the absence of inhibitor was defined as 100%. The following peptides (GL Biochem, Shanghai, China) were dissolved in DMSO at a concentration of 5 mM and used for testing 3C proteases activity (Table 3).

ERBV-1 3C protease = ERBV-1 3C protease (Equine rhinitis B virus 1, UniProt Q66776); test: as above; assay type: biochemical; settings: fixed enzyme concentration, 3 h incubation
Procedure: as §1, §2

EV-D68 3C protease = target: T1, EV-D68 3C protease (Human enterovirus D68, UniProt Q68T42); test: as above; assay type: biochemical; settings: fixed enzyme concentration, 3 h incubation; read-out: IC50 HEV-D68
T1 construct: a panel of six additional rhinoviral and enteroviral 3C proteases; purchased European Virus Archive
Procedure: as §1, §2

EV-B93 3C protease = EV-B93 3C protease (Enterovirus B93 (species Enterovirus B), UniProt Q5DSM6); test: as above; assay type: biochemical, human enterovirus B93
Procedure: as §1, §2

CBV 3C protease = target: T2, CBV 3C protease (Coxsackievirus B3, UniProt P03313); test: In vitro proteolytic activity assay (3 h incubation); assay type: biochemical, Coxsackie virus B3; settings: fixed enzyme concentration
T2 construct: 3C protease of Coxsackie virus B3 consisting of 183 amino-acid residues; made in house; host or cells: E. coli BL21(DE3), plasmid pET-23a(+)
Procedure: as §2

Human Caspase-3 = target: T3, Human Caspase-3 (Homo sapiens, UniProt P42574); test: Side reactivity testing against different proteases; assay type: biochemical
T3 sequence (P42574 29-175 limits assumed): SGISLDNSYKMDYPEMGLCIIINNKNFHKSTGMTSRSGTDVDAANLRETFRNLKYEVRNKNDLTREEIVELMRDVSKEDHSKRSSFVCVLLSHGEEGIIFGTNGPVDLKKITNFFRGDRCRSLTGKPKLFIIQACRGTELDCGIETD
T3 sequence (P42574 176-277 limits assumed): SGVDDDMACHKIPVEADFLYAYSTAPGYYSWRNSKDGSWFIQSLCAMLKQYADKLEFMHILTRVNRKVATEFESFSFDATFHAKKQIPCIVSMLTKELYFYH
Procedure: (§3) The four enzymes cover a broad range of S1-preferences, namely for arginine/lysine (trypsin, factor Xa), hydrophobic residues (chymotrypsin) and aspartate (caspase-3).
(§4) Supplementary Table 3. Side reactivity testing of selected compounds against different
(§5) Cpd# Structure Trypsin1) Chymotrypsin2) Human factor Xa3) Human Caspase-34) […]
4) in 50 mM HEPES-NaOH pH 7.5 / 100 mM NaCl / 1 mM EDTA / 0.1% (w/v) CHAPS / 10% (v/v) glycerol /2 mM DTT
with 10 µM acetyl-DEVD-AMC as substrate;

AiV-1 3C protease = target: T4, AiV-1 3C protease (Aichi virus, UniProt O91464); test: In vitro proteolytic activity assay (HPLC, 3 h incubation); assay type: biochemical, Aichi virus 1; settings: fixed enzyme concentration, 3 h incubation
T4 construct: a panel of six additional rhinoviral and enteroviral 3C proteases; purchased European Virus Archive
Procedure: as §1, §2

CVB3 3C protease = target: T5, CVB3 3C protease (Coxsackievirus B3, UniProt P03313); test: FRET-based enzyme activity assay (warhead activation / inhibitor kinetics); assay type: biochemical, Coxsackie virus B3; settings: for kinact/KI: relative inactivation rate, slope of kobs against inhibitor concentration
T5 construct: 3C protease of Coxsackie virus B3 consisting of 183 amino-acid residues; made in house; host or cells: E. coli BL21(DE3), plasmid pET-23a(+)
Procedure: The activity of the protease was measured by hydrolysis of the FRET-substrate N-Dabcyl-KTLEALFQ↓GPPVYE(Edans)-NH2. The peptide was purchased from Biosyntan (Berlin, Germany). Samples were irradiated with light with a wavelength of 355 nm and the emitted light at 538 nm was measured in relative fluorescence units (RFUs). An amount of 100 pmol of cleaved substrate equals 5,000 RFU.
Assay samples contained 10 μl of a 100 mM HEPES-NaOH buffer solution pH 7.5/1 mM EDTA, 10 μl enzyme solution (2 μM CVB3 3C^Pro), 10 μl of 10 μM substrate solution (both dissolved in the above buffer) and 1 μl Inhibitor and/or fragment dissolved in DMSO. For assay results of a dilution series of a mixture of 1 and 2 and comparison of reaction products in dependence of the assay solvent, see Supplementary Figs 1 and 2.
The screening procedure consisted of the following steps: 10 μl 100 mM HEPES-NaOH buffer solution pH 7.5/1 mM EDTA was placed in a cavity of the 384-well plate (polystyrene, Corning 3544). Then 10 μl of enzyme solution (40 μM CVB3 3C protease in 100 mM HEPES-NaOH buffer solution, pH 7.5/1 mM EDTA) was added and the plate was shaken for 2 min at 1,400 r.p.m. Afterwards, 0.5 μl of a DMSO solution of the electrophilic probe and 0.5 μl of a DMSO solution of the nucleophile was added, followed by 10 μl of substrate solution (10 μM in 100 mM HEPES-NaOH buffer solution, pH 7.5/1 mM EDTA). The plate was shaken again for 2 min at 1,400 r.p.m. and the generated fluorescence signal was measured with a Safire II Fluorimeter from Tecan. The electrophilic probe 1 was used at a concentration of 400 μM for the screening, which lowered the protease activity by 10–20%. Eight-hundred fifty primary amines were tested at a concentration of 320 μM and fragment 2 amplified the inhibitory activity of 1 most potently. Positive control samples contained only DMSO instead of the probe or the nucleophile. Negative control samples contained no active enzyme. An interfering fluorescent effect has not been observed.
When determining the inhibitory parameters of an inhibitor, the assay set-up was as mentioned but 1 μl DMSO solution of inhibitor was used instead of probe or nucleophile. Different concentrations of inhibitor were tested at least as duplicates and the pseudo-first-order association kinetics (kobs) were determined using GraphPad Prism. The slope of a plot of the different kobs values against the inhibitor concentration yielded kinact/KI.

Human factor Xa = Human factor Xa (Homo sapiens, UniProt P00742); test: Side reactivity testing against different proteases; assay type: biochemical
Human factor Xa, sequence (P00742 235-488 limits assumed): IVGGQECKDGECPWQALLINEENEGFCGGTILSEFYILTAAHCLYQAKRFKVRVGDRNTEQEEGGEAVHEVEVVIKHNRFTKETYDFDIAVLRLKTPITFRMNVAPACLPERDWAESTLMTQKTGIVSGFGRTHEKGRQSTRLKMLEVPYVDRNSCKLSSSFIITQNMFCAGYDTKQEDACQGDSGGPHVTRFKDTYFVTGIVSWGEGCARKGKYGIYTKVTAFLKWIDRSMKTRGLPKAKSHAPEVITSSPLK
Human factor Xa, sequence (P00742 41-179 partner limits assumed): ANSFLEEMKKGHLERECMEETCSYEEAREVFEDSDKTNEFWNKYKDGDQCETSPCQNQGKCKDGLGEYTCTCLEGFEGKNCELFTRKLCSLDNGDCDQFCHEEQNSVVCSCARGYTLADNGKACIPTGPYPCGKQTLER
Procedure: as §3, §4, §5
3) in 50 mM MOPS-NaOH pH 8.0 / 154 mM NaCl with 114 µM Boc-LGR-AMC as substrate; […]

Chymotrypsin = test: as above; assay type: biochemical
Procedure: as §3, §4, §5
2) in 50 mM MOPS-NaOH pH 8.0 / 154 mM NaCl with 1.6 mM AF-AMC as substrate. […]

Trypsin = test: as above; assay type: biochemical; settings: 50 mM MOPS-NaOH pH 8.0 / 154 mM NaCl, 57 µM Boc-LGR-AMC as substrate
Procedure: as §3, §4
Cpd# Structure Trypsin1) Chymotrypsin2) Human factor Xa3) Human Caspase-34)
1) in 50 mM MOPS-NaOH pH 8.0 / 154 mM NaCl with 57 µM tert. butyloxycarbonyl (Boc)-LGR-7-amino-4-
methylcoumarin (AMC) as substrate; […]

HRV-A49 3C protease = HRV-A49 3C protease (Rhinovirus A49, UniProt A5GZE5); test: In vitro proteolytic activity assay (HPLC, 3 h incubation); assay type: biochemical, human rhinovirus A49; settings: fixed enzyme concentration, 3 h incubation
Procedure: as §1, §2

**Q.** How did the IC50 (PSV-1 3C protease) turn out when CCNC(=O)/C=C\C(=O)Nc1cc(=O)[nH]n1C1CCCCCC1 [Compound 14] was run?
**A.** The IC50 was 8 µM.

**Q.** What about the IC50 (ERBV-1 3C protease) of the same molecule?
**A.** Its IC50 is > 10 µM.

**Q.** What about the IC50 (EV-D68 3C protease) of the same molecule?
**A.** Its IC50 is > 20 µM.

**Q.** What about the IC50 (EV-B93 3C protease; fixed enzyme concentration, 3 h incubation) of the same molecule?
**A.** Its IC50 is 4 µM.

**Q.** What about the “inhibition of the enzyme” value (EV-B93 3C protease; one inhibitor equivalent) of the same molecule?
**A.** The value was “fully inhibited”.

**Q.** And the IC50 (CBV 3C protease)?
**A.** The IC50 was 13 µM.

**Q.** And the IC50 (Human Caspase-3; 50 mM HEPES-NaOH pH 7.5, 10 µM acetyl-DEVD-AMC as substrate)?
**A.** Its IC50 is > 500 µM.

**Q.** What about the “activity against caspase-3, in words” value (Human Caspase-3; at concentrations of 100 μM) of the same molecule?
**A.** Its value is “inactive”.

**Q.** And the IC50 (AiV-1 3C protease)?
**A.** Its IC50 is 9 µM.

**Q.** What about the “fold reduction of inactivation rate relative to ethyl ester 12” value (CVB3 3C protease) of the same molecule?
**A.** Its value is 10 fold.

**Q.** And the kinact/KI (CVB3 3C protease)?
**A.** The kinact/KI was 63.1 ± 3.1 M⁻¹ s⁻¹.

**Q.** What about the kinact/KI (CVB3 3C protease; read-out: kinact/KI) of the same molecule?
**A.** The kinact/KI was 63 M⁻¹ s⁻¹.

**Q.** And the IC50 (Human factor Xa; 50 mM MOPS-NaOH pH 8.0 / 154 mM NaCl, 114 µM Boc-LGR-AMC as substrate)?
**A.** Its IC50 is > 500 µM.

**Q.** What about the “activity against factor Xa, in words” value (Human factor Xa; at concentrations of 100 μM) of the same molecule?
**A.** The value was “inactive”.

**Q.** What about the IC50 (Chymotrypsin; 50 mM MOPS-NaOH pH 8.0 / 154 mM NaCl, 1.6 mM AF-AMC as substrate) of the same molecule?
**A.** Its IC50 is > 500 µM.

**Q.** What about the “activity against chymotrypsin, in words” value (Chymotrypsin; at concentrations of 100 μM) of the same molecule?
**A.** The value was “inactive”.

**Q.** What about the IC50 (Trypsin) of the same molecule?
**A.** The IC50 was > 500 µM.

**Q.** And the IC50 (HRV-A49 3C protease)?
**A.** Its IC50 is > 20 µM.

**Q.** Which kinact/KI (CVB3 3C protease; read-out: kinact/KI) does the source give for CC(C)n1[nH]c(=O)cc1NC(=O)/C=C/S(=O)(=O)c1ccccc1 [Compound 21] here?
**A.** The kinact/KI was 542 ± 6.3 M⁻¹ s⁻¹.

**Q.** CCOC(=O)/C=C/C(=O)c1c(N)n(-c2ccccc2)[nH]c1=O [Compound 10] was tested. Which kinact/KI (CVB3 3C protease; read-out: kinact/KI) did it give?
**A.** The kinact/KI was 14.7 ± 0.9 M⁻¹ s⁻¹.

**Q.** How did the kinact/KI (CVB3 3C protease) turn out when CCOC(=O)/C=C/C(=O)c1c(N)n(C2CCCCCC2)[nH]c1=O [Compound 8] was run?
**A.** The kinact/KI was 132 M⁻¹ s⁻¹ and 131.7 ± 4.2 M⁻¹ s⁻¹.

**Q.** With CCOC(=O)[C@H]1O[C@H]1C(=O)Nc1cc(=O)[nH]n1C1CCCCCC1 [Compound 5] as the molecule, how does the “inhibition of the protease, in words” value (CVB3 3C protease) read?
**A.** The value was “inactive”.

**Q.** Which kinact/KI (CVB3 3C protease; read-out: kinact/KI) does the source give for CCCC(CCC)n1[nH]c(=O)cc1NC(=O)/C=C\C(=O)OCC [Compound 17] here?
**A.** Its kinact/KI is 217 ± 30.7 M⁻¹ s⁻¹.

**Q.** CCOC(=O)/C=C/Cc1c(N)n(C2CCCCCC2)[nH]c1=O [Compound 7] was tested. Which kinact/KI (CVB3 3C protease) did it give?
**A.** Its kinact/KI is 0.4 M⁻¹ s⁻¹ and 0.42 ± 0.01 M⁻¹ s⁻¹.

**Q.** With Nc1cc(=O)[nH]n1C1CCCCCC1 [Compound 2, 5-amino-1-cycloheptyl-1,2-dihydropyrazol-3-one] as the molecule, how does the “inhibition of the protease, in words” value (CVB3 3C protease) read?
**A.** Its value is “virtually inactive”.

**Q.** What about the “reduction of the enzyme's activity (inhibition)” value (CVB3 3C protease; fragments alone or combined at the same concentrations, ligation assay) of the same molecule?
**A.** Its value is “no more than 10%”.

**Q.** For CCOC(=O)[C@H]1O[C@@H]1Cc1c(N)n(C2CCCCCC2)[nH]c1=O [Compound 3], which kinact/KI (CVB3 3C protease; read-out: kinact/KI) is on record?
**A.** The kinact/KI was 3.7 ± 0.2 M⁻¹ s⁻¹.

Source: publication PMC5052702 (Nature Communications, 2016)
